# From patent publication US20200397784A1 (priority 2019, published 2020)
# Like-named read-outs stand apart in the source and are kept apart here. Marks after values point to notes of the source that are not given here.
# Columns and labels:
# [1] = test system: Influenza A/Vietnam/1203/2004 (H5N1) virus; format: in vivo, BALB/c mice; settings: treatment +48 h
# [2] = test system: Influenza A/California/04/2009 (pndH1N1) virus; format: in vivo; settings: pndH1N1 BALB/c mice
# A/Puerto Rico/8/34 [3] = test system: A/Puerto Rico/8/34
# [4] = test system: Influenza A/Victoria/3/75 (H3N2) virus; format: in vivo, BALB/c mice
# influenza A virus = format: in vivo, mice
# influenza A = experiment: Mouse influenza A model: lung viral titer; format: in vivo, mice; settings: study day 6
# Procedure: The effectiveness of Compound (1) to reduce lung viral titers was investigated. Mice were infected with influenza A and 24 h later vehicle, oseltamivir (10 mg/kg BID) or Compound (1) (3, 10, 30 mg/kg BID) was administered until lung harvest and viral burden determination on day 6 (Table 27).
# [5] = test system: influenza virus A/PR/8/34; experiment: Mouse influenza A model, Compound (1) with or without Oseltamivir, treatment +48 h; format: in vivo, Balb/c mice
# [6] = test system: influenza virus B/Mass/3/66; experiment: Mouse influenza B model, Compound (1) with or without Oseltamivir; format: in vivo, Balb/c mice
# influenza A/PR/8/34 = experiment: Mouse influenza A model, combination of Compound (1) with zanamivir; format: in vivo; settings: A/PR/8/34 mice, no Compound (1)
# Procedure: Infected mice were treated with vehicle or escalating dose levels of Form A of the Compound (1) HCl hemihydrate salt Form A (hereinafter in this example simply Compound (1)) in combination with zanamivir starting 24 hours prior to influenza A challenge with 5×10^3 TCID50 A/PR/8/34. The influenza A challenge and Compound (1) suspensions were prepared in a similar manner as described above in Example 8. The challenged mice were treated once IN (intranasal) with zanamivir at 0.3 mg/kg, 1 mg/kg or 3 mg/kg 24 hours prior to IN challenge with 5×10^3 TCID50 A/PR/8/34, and with Compound (1) at 0.1 mg/kg, 0.3 mg/kg, or 1 mg/kg BID for 10 days starting −2 hours prior to the challenge with 5×10^3 TCID50 A/PR/8/34.
# Efficiency quotient, a composite measure of survival, bodyweight loss and lung function (% survival/(% body weight loss at Day 8)*(Penh at Day 6)) is summarized in Table 24B.
# A/Puerto Rico/8/34 [7] = format: cell-based, influenza A virus
# [8] = 10 mg/kg twice a day for 10 days
# [9] = Oseltamivir 10 mg/kg BID prophylaxis
# [10] = 10 mg/kg twice a day for 10 days starting 2 hours prior to virus exposure
# [11] = 10 mg/kg twice a day, prophylaxis
# [12] = treatment start +24 h, 10 mg/kg BID
# [13] = treatment start +48 h, 10 mg/kg BID
# [14] = treatment start +72 h, 10 mg/kg BID
# [15] = influenza A/PR/8/34 mice, Oseltamivir 10 mg/kg PO BID 10 days alone, from +48 h
# [16] = influenza B/Mass/3/66 mice, Oseltamivir 10 mg/kg PO BID 10 days alone
compound,measurement,setting,value
"CCOC(=O)C1=C[C@@H](OC(CC)CC)[C@H](NC(C)=O)[C@@H](N)C1 [Oseltamivir, oseltamivir]",MDD ± SD (mean day of death of mice that died on or before day 21),[1]; [8],9.5 ± 1.2 days
same,Survivors/Total,[1]; [8],0/10
same,Mean Lung Parameters (Day 6): Virus Titer,[1]; 10 mg/kg twice a day,5.22 ± 0.38 Log10 CCID50/g
same,Mean Lung Parameters (Day 6): Virus Titer,[2]; [9],7.9 ± 0.2 Log10 CCID50/g
same,Mean Lung Parameters (Day 6): Weight,[2]; [9],178 ± 28 mg
same,Mean Lung Parameters (Day 6): Score,"[2]; Oseltamivir 10 mg/kg BID prophylaxis, hemorrhage score 0-4",1.0 ± 0.0^e
same,Survivors/Total,[2]; Oseltamivir 10 mg/kg twice a day for 10 days starting 2 hours prior to virus exposure,10/10***
same,C.I. (combination index),A/Puerto Rico/8/34 [3],0.58
same,MDD ± SD (mean day of death of mice that died on or before day 21),[4]; [10],7.0 days
same,Survivors/Total,[4]; [10],9/10***
same,Mean Lung Parameters (Day 6): Virus Titer,[4]; [11],7.0 ± 0.3 Log10 CCID50/g
same,Mean Lung Parameters (Day 6): Weight,[4]; [11],218 ± 24 mg
same,Mean Lung Parameters (Day 6): Score,"[4]; 10 mg/kg twice a day, prophylaxis, lung hemorrhage score 0-4",1.7 ± 1.1
same,survival,"influenza A virus; mouse influenza A model, oseltamivir 10 mg/kg BID, same experiment",All of the oseltamivir-administered mice survived
same,protection with delayed dosing,"influenza A virus; mouse, in vivo",only provided complete protection when dosing was initiated 24 h or less
same,survival,"influenza A virus; mouse, in vivo",All of the oseltamivir-administered mice survived
same,Percent Survival,"influenza A virus; mouse, in vivo, 10 mg/kg",100%
same,Percent Body Weight Loss on Study Day 8,influenza A virus; [12],−28.9%
same,Percent Survival,influenza A virus; [12],100%
same,Percent Body Weight Loss on Study Day 8,influenza A virus; [13],−31.1%
same,Percent Survival,influenza A virus; [13],80%
same,Percent Body Weight Loss on Study Day 8,influenza A virus; [14],−31.3%
same,Percent Survival,influenza A virus; [14],0%
same,Percent Body Weight Loss on Study Day 8,"influenza A virus; treatment start −2 h, 10 mg/kg BID",−19.1%
same,Lung Viral Titer,"influenza A; Study 1, 10 mg/kg BID from 24 h post infection for 5 days",6.05 Log10 TCID50
same,Log10 Reduction vs. Vehicle,"influenza A; Study 1, 10 mg/kg BID from 24 h post infection",−0.15 Log10
same,"protection from death, BW loss, lung function","[5]; Oseltamivir 10 mg/kg alone, +48 hours post influenza A infection",did not protect from death
same,Penh (Day 3),[5]; [15],2.36
same,Survival (21 days),[5]; [15],0%
same,Weight Loss (Day 8),[5]; [15],32.0%
same,"protection from death, BW loss, lung function","[6]; Oseltamivir 10 mg/kg alone, 2 hours prior to influenza B infection",complete protection from death
same,Penh (Day 6/7),[6]; [16],1.08
same,Survival (21 days),[6]; [16],100%
same,Weight Loss (Day 8),[6]; [16],12.8%
"CC(=O)N[C@H]1[C@H]([C@H](O)[C@H](O)CO)OC(C(=O)O)=C[C@@H]1N=C(N)N [Zanamivir, zanamivir]",Survival Rate,"influenza A/PR/8/34; Zanamivir 0.3 mg/kg IN x 1, 24 h prior to infection",37.5
same,Efficiency Quotient (% survival/(% body weight loss at Day 8)*(Penh at Day 6)),influenza A/PR/8/34; Zanamivir 0.3 mg/kg IN x 1,0.44
same,Survival Rate,"influenza A/PR/8/34; Zanamivir 1 mg/kg IN x 1, 24 h prior to infection",50
same,Efficiency Quotient (% survival/(% body weight loss at Day 8)*(Penh at Day 6)),influenza A/PR/8/34; Zanamivir 1 mg/kg IN x 1,0.73
same,Survival Rate,"influenza A/PR/8/34; Zanamivir 3 mg/kg IN x 1, 24 h prior to infection",62.5
same,Efficiency Quotient (% survival/(% body weight loss at Day 8)*(Penh at Day 6)),influenza A/PR/8/34; Zanamivir 3 mg/kg IN x 1,0.73
same,synergy volume,A/Puerto Rico/8/34 [7],268
same,C.I. (combination index),A/Puerto Rico/8/34 [3],0.64
NC(=O)c1nc(F)c[nH]c1=O [favipiravir],synergy volume,A/Puerto Rico/8/34 [7],317
same,C.I. (combination index),A/Puerto Rico/8/34 [3],0.89
CCC(CC)O[C@@H]1C=C(C(=O)O)C[C@H](N)[C@H]1NC(C)=O [oseltamivir carboxylate],synergy volume,"A/Puerto Rico/8/34 [7]; in combination with Compound (1), Bliss independence method, […]",312
